# Test results published in PubChem BioAssay AID2060337 (Molecular Pharmacology Branch, DTP, NCI, 2025).
# Several values for one entry are separate records, joined by “and”; a condition that tells them apart may be missing. Equal values may be shown once.
# Test system: 832693-133-R-J1-PDC multi-cell spheroids, viability
# Assay: Anticancer human tumor 832693-133-R-J1-PDC patient-derived head and neck squamous carcinoma cell line growth inhibition [IpAb]
# Conditions: for viability, T/C: stronger effect = lower value
# Procedure, shortened: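 Spheroids of 60% malignant cells, 25% HUVEC and 15% MSC were exposed to targeted agents combined with ipatasertib or abemaciclib. Doses started at or near clinical Cmax (10 microM when unknown) and fell in half-log steps.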
# [1] = curve of first compound, second compound 0.1 µM
# [2] = curve of first compound, second compound 0.316 µM
# [3] = curve of first compound, second compound 1 µM
# [4] = second compound 0.1 µM, first compound 0.0316 µM
# [5] = second compound 0.1 µM, first compound 0.1 µM
# [6] = second compound 0.316 µM, first compound 0.0316 µM
# [7] = second compound 0.316 µM, first compound 0.1 µM
# [8] = second compound 1 µM, first compound 0.0316 µM
# [9] = second compound 1 µM, first compound 0.1 µM
# 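Also: spheroids exposed to the drugs for one week before the viability readout.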
# 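For viability, T/C in this document: 100% = DMSO vehicle control wells.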
structure (smiles),measurement,setting,value
C=CCn1c(=O)c2cnc(Nc3ccc(N4CCN(C)CC4)cc3)nc2n1-c1cccc(C(C)(C)O)n1 + CCN1CCN(Cc2ccc(Nc3ncc(F)c(-c4cc(F)c5nc(C)n(C(C)C)c5c4)n3)nc2)CC1,IC50,"curve of first compound, second compound 0.01 µM",233 nM
same,IC50,"curve of first compound, second compound 0.0316 µM",246 nM
same,IC50,[1],138 nM
same,IC50,[2],134 nM
same,IC50,[3],2620 nM
same,"viability, T/C","second compound 0.01 µM, first compound 0.0316 µM",93.9%
same,"viability, T/C","second compound 0.01 µM, first compound 0.1 µM",66.6%
same,"viability, T/C","second compound 0.01 µM, first compound 0.316 µM",42.4%
same,"viability, T/C","second compound 0.01 µM, first compound 1 µM",28.9%
same,"viability, T/C","second compound 0.01 µM, first compound 3.16 µM",27.5%
same,"viability, T/C","second compound 0.01 µM, first compound 10 µM",13.9%
same,"viability, T/C","second compound 0.0316 µM, first compound 0.0316 µM",74.7%
same,"viability, T/C","second compound 0.0316 µM, first compound 0.1 µM",68%
same,"viability, T/C","second compound 0.0316 µM, first compound 0.316 µM",40.4%
same,"viability, T/C","second compound 0.0316 µM, first compound 1 µM",33.2%
same,"viability, T/C","second compound 0.0316 µM, first compound 3.16 µM",29.3%
same,"viability, T/C","second compound 0.0316 µM, first compound 10 µM",14.9%
same,"viability, T/C",[4],65.9%
same,"viability, T/C",[5],51.8%
same,"viability, T/C","second compound 0.1 µM, first compound 0.316 µM",41.6%
same,"viability, T/C","second compound 0.1 µM, first compound 1 µM",33.3%
same,"viability, T/C","second compound 0.1 µM, first compound 3.16 µM",30.9%
same,"viability, T/C","second compound 0.1 µM, first compound 10 µM",19.1%
same,"viability, T/C",[6],53.4%
same,"viability, T/C",[7],52.9%
same,"viability, T/C","second compound 0.316 µM, first compound 0.316 µM",47.9%
same,"viability, T/C","second compound 0.316 µM, first compound 1 µM",37.4%
same,"viability, T/C","second compound 0.316 µM, first compound 3.16 µM",35.2%
same,"viability, T/C","second compound 0.316 µM, first compound 10 µM",25%
same,"viability, T/C",[8],61.9%
same,"viability, T/C",[9],65.9%
same,"viability, T/C","second compound 1 µM, first compound 0.316 µM",56.7%
same,"viability, T/C","second compound 1 µM, first compound 1 µM",53.6%
same,"viability, T/C","second compound 1 µM, first compound 3.16 µM",51.6%
same,"viability, T/C","second compound 1 µM, first compound 10 µM",23.8%
C=CCn1c(=O)c2cnc(Nc3ccc(N4CCN(C)CC4)cc3)nc2n1-c1cccc(C(C)(C)O)n1,"viability, T/C",compound 0.0316 µM,94% and 91.3%
same,"viability, T/C",compound 0.1 µM,79.8% and 71.9%
same,"viability, T/C",compound 0.316 µM,32.5% and 35.4%
same,"viability, T/C",compound 1 µM,27% and 31.5%
same,"viability, T/C",compound 3.16 µM,25.9% and 28.6%
same,"viability, T/C",compound 10 µM,12.5% and 11.7%
same,IC50,curve of compound,208 nM and 221 nM
Cn1ncnc1[C@H]1c2n[nH]c(=O)c3cc(F)cc(c23)N[C@@H]1c1ccc(F)cc1 + CC(C)NCC(C(=O)N1CCN(c2ncnc3c2C(C)CC3O)CC1)c1ccc(Cl)cc1,IC50,[1],> 100 nM
same,IC50,[2],> 100 nM
same,IC50,[3],4.7 nM
same,IC50,"curve of first compound, second compound 3.16 µM",8.16 nM
same,IC50,"curve of first compound, second compound 10 µM",> 100 nM
same,"viability, T/C","second compound 0.1 µM, first compound 0.000316 µM",96%
same,"viability, T/C","second compound 0.1 µM, first compound 0.001 µM",94%
same,"viability, T/C","second compound 0.1 µM, first compound 0.00316 µM",74.7%
same,"viability, T/C","second compound 0.1 µM, first compound 0.01 µM",80.7%
same,"viability, T/C",[4],85.6%
same,"viability, T/C",[5],72.4%
same,"viability, T/C","second compound 0.316 µM, first compound 0.000316 µM",77.8%
same,"viability, T/C","second compound 0.316 µM, first compound 0.001 µM",87.5%
same,"viability, T/C","second compound 0.316 µM, first compound 0.00316 µM",69.2%
same,"viability, T/C","second compound 0.316 µM, first compound 0.01 µM",61.1%
same,"viability, T/C",[6],65.3%
same,"viability, T/C",[7],52.9%
same,"viability, T/C","second compound 1 µM, first compound 0.000316 µM",59.5%
same,"viability, T/C","second compound 1 µM, first compound 0.001 µM",56.8%
same,"viability, T/C","second compound 1 µM, first compound 0.00316 µM",49.3%
same,"viability, T/C","second compound 1 µM, first compound 0.01 µM",48%
same,"viability, T/C",[8],42.7%
same,"viability, T/C",[9],35.9%
same,"viability, T/C","second compound 3.16 µM, first compound 0.000316 µM",57.9%
same,"viability, T/C","second compound 3.16 µM, first compound 0.001 µM",61%
same,"viability, T/C","second compound 3.16 µM, first compound 0.00316 µM",56.1%
same,"viability, T/C","second compound 3.16 µM, first compound 0.01 µM",46.5%
same,"viability, T/C","second compound 3.16 µM, first compound 0.0316 µM",41.7%
same,"viability, T/C","second compound 3.16 µM, first compound 0.1 µM",36.2%
same,"viability, T/C","second compound 10 µM, first compound 0.000316 µM",83.5%
same,"viability, T/C","second compound 10 µM, first compound 0.001 µM",69.4%
same,"viability, T/C","second compound 10 µM, first compound 0.00316 µM",65%
same,"viability, T/C","second compound 10 µM, first compound 0.01 µM",62.6%
same,"viability, T/C","second compound 10 µM, first compound 0.0316 µM",63.2%
same,"viability, T/C","second compound 10 µM, first compound 0.1 µM",47.8%
